Test results: ChEMBL document CHEMBL6114968, “Discovery of BW710 as a potent, selective and orally bioavailable fibroblast growth factor receptor 2 (FGFR2) inhibitor” (Eur J Med Chem, 2025)

Columns and labels:
BaF3 [1] = assay: Antiproliferative activity against mouse BaF3 cells expressing FGFR2 incubated for 72 hrs by CCK-8 assay; assay type: functional, cell-based; settings: BaF3, 72 h
BaF3 [2] = assay: Antiproliferative activity against mouse BaF3 cells expressing FGFR1 incubated for 72 hrs by CCK-8 assay; assay type: functional, cell-based; settings: BaF3, 72 h
BaF3 [3] = assay: Antiproliferative activity against mouse BaF3 cells incubated for 72 hrs by CCK-8 assay; settings: BaF3, 72 h
[4] = Selectivity ratio of IC50 for antiproliferative activity against mouse BaF3 cells expressing FGFR1 to IC50 for antiproliferative activity against mouse BaF3 cells expressing FGFR2; assay type: functional
[5] = molecular target: Fibroblast growth factor receptor 1 (Homo sapiens) (UniProt P11362); assay: Inhibition of FGFR1 (unknown origin) at 1 uM by KINOMEscan analysis relative to control
[6] = molecular target: Fibroblast growth factor receptor 2 (Homo sapiens) (UniProt P21802); assay: Inhibition of FGFR2 (unknown origin) at 1 uM by KINOMEscan analysis relative to control
[7] = molecular target: Fibroblast growth factor receptor 3 (Homo sapiens) (UniProt P22607); assay: Inhibition of FGFR3 (unknown origin) at 1 uM by KINOMEscan analysis relative to control
[8] = molecular target: Fibroblast growth factor receptor 4 (Homo sapiens) (UniProt P22455); assay: Inhibition of FGFR4 (unknown origin) at 1 uM by KINOMEscan analysis relative to control
[9] = molecular target: Fibroblast growth factor receptor 2 (Homo sapiens) (UniProt P21802); assay: Inhibition of FGFR2 phosphorylation in human SNU-16 cells incubated for 1 hr by Western blot analysis; assay type: cell-based; settings: dose 0.5-100 nM
[10] = molecular target: Fibroblast growth factor receptor 2 (Homo sapiens) (UniProt P21802); assay: Inhibition of FGFR2 in human SNU-16 cells assessed as decrease in FRS2-alpha phosphorylation at Tyr436 residue incubated for 1 hr by Western blot analysis; assay type: cell-based; settings: dose 0.5-100 nM
[11] = molecular target: Fibroblast growth factor receptor 2 (Homo sapiens) (UniProt P21802); assay: Inhibition of FGFR2 in human SNU-16 cells assessed as decrease in Akt phosphorylation at Ser473 residue incubated for 1 hr by Western blot analysis; assay type: cell-based; settings: dose 0.5-100 nM
[12] = molecular target: Fibroblast growth factor receptor 2 (Homo sapiens) (UniProt P21802); assay: Inhibition of FGFR2 in human SNU-16 cells assessed as decrease in ERK1/2 phosphorylation incubated for 1 hr by Western blot analysis; assay type: cell-based; settings: dose 0.5-100 nM
[13] = Antiproliferative activity against FGFR2 amplified human SNU-16 cells measured after 72 hrs by CCK-8 assay; assay type: functional, cell-based; settings: SNU-16, 72 h
[14] = Antiproliferative activity against FGFR2 amplified human KATO III stomach cancer cell line measured after 72 hrs by CCK-8 assay; assay type: functional, cell-based
A204 = assay: Antiproliferative activity against FGFR1 amplified human A204 cells measured after 72 hrs by CCK-8 assay; assay type: functional, cell-based; settings: A204, 72 h
[15] = Antiproliferative activity against human RT-112 cells harboring FGFR3-TACC3 measured after 72 hrs by CCK-8 assay; assay type: functional, cell-based; settings: RT-112, 72 h
MDA-MB-453 = assay: Antiproliferative activity against human MDA-MB-453 cells harboring FGFR4-Y367C measured after 72 hrs by CCK-8 assay; assay type: functional, cell-based; settings: MDA-MB-453, 72 h
[16] = Half life in mouse at 1 mg/kg, iv; assay type: ADME, organism-based; settings: in vivo
[17] = Cmax in mouse at 1 mg/kg, iv; assay type: ADME, organism-based; settings: in vivo
[18] = Clearance in mouse at 1 mg/kg, iv; assay type: ADME, organism-based; settings: in vivo
[19] = AUC(0 to t) in mouse at 1 mg/kg, iv; assay type: ADME, organism-based; settings: in vivo
[20] = MRT(0 to t) in mouse at 1 mg/kg, iv; assay type: ADME, organism-based; settings: in vivo
[21] = Half life in mouse at 10 mg/kg, po; assay type: ADME, organism-based; settings: in vivo
[22] = Cmax in mouse at 10 mg/kg, po; assay type: ADME, organism-based; settings: in vivo
[23] = AUC(0 to t) in mouse at 10 mg/kg, po; assay type: ADME, organism-based; settings: in vivo
[24] = MRT(0 to t) in mouse at 10 mg/kg, po; assay type: ADME, organism-based; settings: in vivo
[25] = Oral bioavailability in mouse at 10 mg/kg; assay type: ADME, organism-based; settings: in vivo

Fibroblast growth factor receptor 2 (Homo sapiens), sequence (P21802 22-821 limits assumed): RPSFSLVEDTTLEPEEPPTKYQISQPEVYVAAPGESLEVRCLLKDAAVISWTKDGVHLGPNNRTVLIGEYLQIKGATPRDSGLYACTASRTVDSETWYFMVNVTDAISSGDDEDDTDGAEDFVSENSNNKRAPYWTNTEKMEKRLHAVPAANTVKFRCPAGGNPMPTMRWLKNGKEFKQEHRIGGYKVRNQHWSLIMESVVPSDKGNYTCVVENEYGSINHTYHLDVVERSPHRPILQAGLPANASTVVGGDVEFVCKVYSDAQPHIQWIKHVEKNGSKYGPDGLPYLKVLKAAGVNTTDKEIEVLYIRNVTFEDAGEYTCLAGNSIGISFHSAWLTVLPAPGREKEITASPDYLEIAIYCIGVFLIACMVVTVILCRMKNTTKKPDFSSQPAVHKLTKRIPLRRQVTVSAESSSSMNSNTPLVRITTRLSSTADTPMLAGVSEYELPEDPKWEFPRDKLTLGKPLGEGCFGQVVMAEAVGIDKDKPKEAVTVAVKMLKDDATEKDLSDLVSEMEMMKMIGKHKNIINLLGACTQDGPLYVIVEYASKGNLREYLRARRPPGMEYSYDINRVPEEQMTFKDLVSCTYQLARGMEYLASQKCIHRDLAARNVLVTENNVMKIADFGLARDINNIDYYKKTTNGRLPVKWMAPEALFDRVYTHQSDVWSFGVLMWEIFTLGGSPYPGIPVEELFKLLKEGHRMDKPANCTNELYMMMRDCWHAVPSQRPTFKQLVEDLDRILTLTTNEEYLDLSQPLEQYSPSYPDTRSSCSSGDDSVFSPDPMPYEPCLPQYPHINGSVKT
Fibroblast growth factor receptor 3 (Homo sapiens), sequence (P22607 23-806 limits assumed): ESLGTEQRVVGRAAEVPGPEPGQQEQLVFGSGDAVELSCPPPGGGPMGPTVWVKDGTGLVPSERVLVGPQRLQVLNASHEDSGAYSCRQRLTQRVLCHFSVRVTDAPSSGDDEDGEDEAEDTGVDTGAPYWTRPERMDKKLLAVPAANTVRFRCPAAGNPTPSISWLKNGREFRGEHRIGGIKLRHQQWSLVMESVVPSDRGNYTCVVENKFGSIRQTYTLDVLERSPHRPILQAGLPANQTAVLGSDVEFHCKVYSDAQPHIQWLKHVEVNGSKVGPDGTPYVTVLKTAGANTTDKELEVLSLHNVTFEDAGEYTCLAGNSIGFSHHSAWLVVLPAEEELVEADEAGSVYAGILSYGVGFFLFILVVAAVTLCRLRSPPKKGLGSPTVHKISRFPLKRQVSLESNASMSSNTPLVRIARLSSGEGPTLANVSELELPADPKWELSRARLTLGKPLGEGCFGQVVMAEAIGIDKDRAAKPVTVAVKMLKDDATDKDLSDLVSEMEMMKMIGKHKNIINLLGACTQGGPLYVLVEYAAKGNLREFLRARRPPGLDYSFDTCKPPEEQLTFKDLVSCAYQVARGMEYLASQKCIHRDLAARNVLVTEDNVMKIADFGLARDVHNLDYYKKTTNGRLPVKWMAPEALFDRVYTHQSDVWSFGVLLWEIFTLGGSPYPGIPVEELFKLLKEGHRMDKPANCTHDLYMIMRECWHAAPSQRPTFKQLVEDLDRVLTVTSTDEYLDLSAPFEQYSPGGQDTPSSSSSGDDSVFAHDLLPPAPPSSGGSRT
Fibroblast growth factor receptor 4 (Homo sapiens), sequence (P22455 22-802 limits assumed): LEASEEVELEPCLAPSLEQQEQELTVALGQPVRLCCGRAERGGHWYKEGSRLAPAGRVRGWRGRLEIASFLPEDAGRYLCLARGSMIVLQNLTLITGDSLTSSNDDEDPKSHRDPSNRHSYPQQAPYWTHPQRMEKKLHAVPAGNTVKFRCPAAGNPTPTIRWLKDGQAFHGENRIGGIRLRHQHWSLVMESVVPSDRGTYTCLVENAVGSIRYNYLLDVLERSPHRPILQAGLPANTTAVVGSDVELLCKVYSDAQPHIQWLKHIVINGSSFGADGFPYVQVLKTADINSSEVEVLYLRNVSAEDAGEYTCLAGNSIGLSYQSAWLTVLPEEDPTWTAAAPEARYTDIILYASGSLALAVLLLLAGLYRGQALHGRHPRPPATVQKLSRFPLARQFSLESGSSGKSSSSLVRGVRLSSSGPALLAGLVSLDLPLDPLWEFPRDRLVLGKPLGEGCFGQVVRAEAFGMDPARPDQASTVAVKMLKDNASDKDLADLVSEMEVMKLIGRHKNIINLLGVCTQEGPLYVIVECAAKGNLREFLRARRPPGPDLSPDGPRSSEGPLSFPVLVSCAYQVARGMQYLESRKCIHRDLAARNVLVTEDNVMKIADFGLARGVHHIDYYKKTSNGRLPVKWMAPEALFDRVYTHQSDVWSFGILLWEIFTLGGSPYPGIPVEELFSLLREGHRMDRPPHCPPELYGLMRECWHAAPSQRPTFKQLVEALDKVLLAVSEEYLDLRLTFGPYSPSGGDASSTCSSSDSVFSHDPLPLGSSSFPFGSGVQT
Fibroblast growth factor receptor 1 (Homo sapiens), sequence (P11362 22-822 limits assumed): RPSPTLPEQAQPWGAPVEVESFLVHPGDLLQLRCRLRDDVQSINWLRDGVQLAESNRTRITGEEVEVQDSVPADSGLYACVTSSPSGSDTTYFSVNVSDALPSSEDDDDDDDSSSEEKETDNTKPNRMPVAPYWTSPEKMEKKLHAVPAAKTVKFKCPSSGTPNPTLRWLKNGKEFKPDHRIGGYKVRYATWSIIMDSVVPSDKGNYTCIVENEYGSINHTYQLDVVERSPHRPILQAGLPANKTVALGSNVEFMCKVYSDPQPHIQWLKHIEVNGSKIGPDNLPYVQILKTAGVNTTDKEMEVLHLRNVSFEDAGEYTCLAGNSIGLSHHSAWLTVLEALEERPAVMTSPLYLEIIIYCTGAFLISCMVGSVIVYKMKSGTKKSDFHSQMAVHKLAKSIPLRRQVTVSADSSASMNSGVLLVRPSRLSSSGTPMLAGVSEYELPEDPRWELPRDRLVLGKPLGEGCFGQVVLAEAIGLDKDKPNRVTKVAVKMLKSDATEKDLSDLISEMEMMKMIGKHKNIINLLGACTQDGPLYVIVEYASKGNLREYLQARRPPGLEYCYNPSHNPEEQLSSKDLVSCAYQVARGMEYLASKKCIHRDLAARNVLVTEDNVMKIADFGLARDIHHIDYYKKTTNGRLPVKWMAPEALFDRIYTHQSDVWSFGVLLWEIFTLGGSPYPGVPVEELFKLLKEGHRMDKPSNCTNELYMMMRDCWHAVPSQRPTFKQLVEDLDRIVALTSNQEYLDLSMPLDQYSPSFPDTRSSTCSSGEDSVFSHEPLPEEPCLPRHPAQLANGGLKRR

C=CC(=O)Nc1ccc(-c2c(-c3ccc(S4(=O)=NCCCC4)cc3)c3c(N)ncnc3n2C)cc1 (stereo unspecified)
IC50 (BaF3 [1]): 12.1 nM
IC50 (BaF3 [2]): > 1000 nM
IC50 (BaF3 [3]): > 1000 nM

C=CC(=O)Nc1ccc(-c2c(-c3ccc(S4(=O)=NCCC4)cc3)c3c(N)ncnc3n2C)cc1 (stereo unspecified)
IC50 (BaF3 [1]): 12 nM
IC50 (BaF3 [2]): > 1000 nM
IC50 (BaF3 [3]): > 1000 nM

C=CC(=O)Nc1ccc(-c2c(-c3ccc(S(C)(=O)=NC4CC4)cc3)c3c(N)ncnc3n2C)cc1 (stereo unspecified)
IC50 (BaF3 [1]): 108 nM
IC50 (BaF3 [2]): > 1000 nM
IC50 (BaF3 [3]): > 1000 nM

C=CC(=O)Nc1ccc(-c2c(-c3ccc(S4(=O)=NCCCCC4)cc3)c3c(N)ncnc3n2C)cc1 (stereo unspecified)
IC50 (BaF3 [1]): 1.1 nM
IC50 (BaF3 [2]): 307 nM
IC50 (BaF3 [3]): > 1000 nM
Ratio IC50 [4]: >279

C=CC(=O)Nc1ccc(-c2c(-c3ccc(S(C)(=O)=NCCC)cc3)c3c(N)ncnc3n2C)cc1 (stereo unspecified)
IC50 (BaF3 [1]): 90.1 nM
IC50 (BaF3 [2]): 841 nM
IC50 (BaF3 [3]): > 1000 nM

C=CC(=O)Nc1ccc(-c2c(-c3ccc(S(C)(=O)=NCC)cc3)c3c(N)ncnc3n2C)cc1 (stereo unspecified)
IC50 (BaF3 [1]): 153 nM
IC50 (BaF3 [2]): > 1000 nM
IC50 (BaF3 [3]): > 1000 nM

C=CC(=O)Nc1ccc(-c2c(-c3ccc(S(=N)(=O)C4CCCC4)cc3)c3c(N)ncnc3n2C)cc1 (stereo unspecified)
IC50 (BaF3 [1]): 6.6 nM
IC50 (BaF3 [2]): 885 nM
IC50 (BaF3 [3]): > 1000 nM

C=CC(=O)Nc1ccc(-c2c(-c3ccc(S(=N)(=O)C4CC4)cc3)c3c(N)ncnc3n2C)cc1 (stereo unspecified)
IC50 (BaF3 [1]): 61.9 nM
IC50 (BaF3 [2]): > 1000 nM
IC50 (BaF3 [3]): > 1000 nM

C=CC(=O)Nc1ccc(-c2c(-c3ccc(S(C)(=N)=O)cc3)c3c(N)ncnc3n2C)cc1 (stereo unspecified)
IC50 (BaF3 [1]): 914 nM
IC50 (BaF3 [2]): > 1000 nM
IC50 (BaF3 [3]): > 1000 nM

C=C(C)C(=O)Nc1ccc(-c2c(-c3ccc(S4(=O)=NCCCCC4)cc3)c3c(N)ncnc3n2C)c(F)c1 (stereo unspecified)
IC50 (BaF3 [1]): 2.8 nM
IC50 (BaF3 [2]): > 1000 nM
IC50 (BaF3 [3]): > 1000 nM
inhibition [5]: 14.7%
inhibition [6]: 101%
inhibition [7]: 13.7%
inhibition [8]: 5.85%
inhibition [9]: Dose-dependent-effect
inhibition [10]: Dose-dependent-effect
inhibition [11]: Dose-dependent-effect
inhibition [12]: Dose-dependent-effect
IC50 [13]: 6.7 nM
IC50 [14]: 12.6 nM
IC50 (A204): 2380 nM
IC50 [15]: 782 nM
IC50 (MDA-MB-453): 2850 nM
half-life [16]: 52.2 min
Cmax [17]: 4700 ng/mL
clearance [18]: 13.2 mL/min/kg
AUC(0-t) [19]: 1270 ng·h/mL
MRT last [20]: 28.8 min
half-life [21]: 64.8 min
Cmax [22]: 2910 ng/mL
AUC(0-t) [23]: 3650 ng·h/mL
MRT last [24]: 87.6 min
bioavailability [25]: 29%

C=C(C)C(=O)Nc1ccc(-c2c(-c3ccc(S4(=O)=NCCCCC4)c(F)c3)c3c(N)ncnc3n2C)cc1 (stereo unspecified)
IC50 (BaF3 [1]): 105 nM
IC50 (BaF3 [2]): > 1000 nM
IC50 (BaF3 [3]): > 1000 nM

C=C(C)C(=O)Nc1ccc(-c2c(-c3ccc(Oc4nccc(C)n4)c(F)c3)c3c(N)ncnc3n2C)cc1 [LIRAFUGRATINIB]
IC50 (BaF3 [1]): 2.4 nM
IC50 (BaF3 [2]): 493 nM

C=CC(=O)Nc1ccc(-c2c(-c3ccc(S(=N)(=O)C4CCCCC4)cc3)c3c(N)ncnc3n2C)cc1 (stereo unspecified)
IC50 (BaF3 [1]): 8.9 nM
IC50 (BaF3 [2]): 787 nM
IC50 (BaF3 [3]): > 1000 nM

C=CC(=O)Nc1ccc(-c2c(-c3ccc(S(C)(=O)=Nc4ccccc4)cc3)c3c(N)ncnc3n2C)cc1 (stereo unspecified)
IC50 (BaF3 [1]): 101 nM
IC50 (BaF3 [2]): 429 nM
IC50 (BaF3 [3]): > 1000 nM

C=CC(=O)Nc1ccc(-c2c(-c3ccc(S(=N)(=O)CC(C)C)cc3)c3c(N)ncnc3n2C)cc1 (stereo unspecified)
IC50 (BaF3 [1]): 12.3 nM
IC50 (BaF3 [2]): > 1000 nM
IC50 (BaF3 [3]): > 1000 nM

C=CC(=O)Nc1ccc(-c2c(-c3ccc(S4(=O)=NCCCCC45CC5)cc3)c3c(N)ncnc3n2C)cc1 (stereo unspecified)
IC50 (BaF3 [1]): 3.6 nM
IC50 (BaF3 [2]): 385 nM
IC50 (BaF3 [3]): > 1000 nM
